{
  "source": "patent US11548849B2",
  "about": "“Alcohol derivatives as KV7 potassium channel openers” (H. Lundbeck A/S, priority 2019, dated 2023)",
  "key": {"hKv7.2/hKv7.3 [1]": {"biological_target": "T1, hKv7.2/hKv7.3 (Homo sapiens, UniProt O43525+O43526)", "T1 construct": "P2A self-cleaving peptide (between Kv7.3 and Kv7.2; the remnant would stay on the upstream protein) (C); expressed in transfected cells", "test": "Thallium influx assay for potassium channel activation", "assay_type": "cell-based", "settings": "HEK-hKv7.2/hKv7.3 cells; FLIPR Potassium Assay kit; AUC readout normalized to a reference compound", "experimental": "(§1) A synthesized cDNA fragment encoding human Kv7.3 and human Kv7.2 separated by a P2A sequence was inserted into the pcDNA5/FRT/TO vector using the BamHI and XhoI restriction sites. The construct was then transfected into HEK Flp-In 293 cells using Lipofectamine2000. The transfected cells were grown for 48 hours in DMEM containing 10% (v/v) FBS and 1% PenStrep and subsequently maintained under selection in DMEM containing 10% (v/v) FBS, 1% PenStrep and 200 ug/mL Hygromycin B at 37° C. in a humidified atmosphere of 5% CO2.\nThe thallium influx assay for potassium channel activation was performed analogously to a published procedure (C. D. Weaver, et al., J Biomol Screen 2004, 9, 671-677) using the FLIPR Potassium Assay kit (Molecular Devices). HEK-hKv7.2/hKv7.3 cells were plated onto 96-well, black-walled, clear-bottomed culture plates (Corning, Acton, Mass., USA) at a density of 80,000 cells/well (100 μl/well) if the cells were assayed the following day, or 40,000 cells/well (100 μl/well) if the cells were assayed two days after seeding.\nOn the assay day, the medium was removed after which 50 uL/well of test compound diluted to 2× final concentration in HBSS containing 20 mM HEPES, and 50 uL/well of 2× dye load buffer were added. The cells were then incubated for 60 min at room temperature in the dark. Chloride-free stimulation buffer containing Tl^+ and K^+ at 5× final concentration (5× concentration: 5 mM in both cases) and test compound at 1× final concentration, were prepared during the incubation. The cells were then assayed in a FDSS7000EX Functional Drug Screening System (Hamamatsu). Following 60 sec of baseline fluorescence signal reading at 0.1 Hz, and 10 sec at 1 Hz, 25 uL/well of stimulation buffer were added and the fluorescence continuously measured for 50 sec at 1 Hz followed, by 4 min at 0.1 Hz. Compound effect was quantified using AUC as readout and normalized to a reference compound, which was included on each plate."}, "hKv7.2/hKv7.3 [2]": {"biological_target": "T1, hKv7.2/hKv7.3", "test": "Automated whole cell patch-clamp functional test of HEK-hKv7.2/hKv7.3 cell line", "assay_type": "cell-based", "settings": "stable HEK-hKv7.2/hKv7.3 cell line", "experimental": "as §1"}},
  "data": [
    {"smiles": "O=C(CC1(O)CC(F)(F)C1)N[C@@H](COC1CC1)c1cccc(OC(F)(F)F)c1", "note": "[Example 28, (R)—N-(2-cyclopropoxy-1-(3-(trifluoromethoxy)phenyl)ethyl)-2-(3,3-difluoro-1-hydroxycyclobutyl)acetamide]", "values": [
      {"measurement": "EC50", "setting": "hKv7.2/hKv7.3 [1]", "value": 3200, "unit": "nM"}
    ]},
    {"smiles": "O=C(CC1(O)CC(F)(F)C1)N[C@@H](COC1CC1)c1cccc(OC(F)F)c1", "note": "[Example 29, (R)—N-(2-cyclopropoxy-1-(3-(difluoromethoxy)phenyl)ethyl)-2-(3,3-difluoro-1-hydroxycyclobutyl)acetamide]", "values": [
      {"measurement": "EC50", "setting": "hKv7.2/hKv7.3 [1]", "value": 5400, "unit": "nM"}
    ]},
    {"smiles": "O=C(CC1(O)CC(F)(F)C1)N[C@@H](COC(F)(F)F)c1cccc(OC(F)F)c1", "note": "[Example 30, (R)-2-(3,3-difluoro-1-hydroxycyclobutyl)-N-(1-(3-(difluoromethoxy)phenyl)-2-(trifluoromethoxy)ethyl)acetamide]", "values": [
      {"measurement": "EC50", "setting": "hKv7.2/hKv7.3 [1]", "value": 1800, "unit": "nM"}
    ]},
    {"smiles": "CCC[C@H](NC(=O)CC1(O)CC(F)(F)C1)c1cccc(OC(F)F)c1", "note": "[Example 31, (S)-2-(3,3-difluoro-1-hydroxycyclobutyl)-N-(1-(3-(difluoromethoxy)phenyl)butyl)acetamide]", "values": [
      {"measurement": "EC50", "setting": "hKv7.2/hKv7.3 [1]", "value": 2600, "unit": "nM"}
    ]},
    {"smiles": "O=C(CC1(O)CC(F)(F)C1)N[C@@H](CCC(F)F)c1cccc(OC(F)F)c1", "note": "[Example 32, (S)-2-(3,3-difluoro-1-hydroxycyclobutyl)-N-(1-(3-(difluoromethoxy)phenyl)-4,4-difluorobutyl)acetamide]", "values": [
      {"measurement": "EC50", "setting": "hKv7.2/hKv7.3 [1]", "value": 2500, "unit": "nM"}
    ]},
    {"smiles": "CC[C@H](NC(=O)CC1(O)CC(F)(F)C1)c1cccc(OC(F)(F)F)c1", "note": "[Example 33, (S)-2-(3,3-difluoro-1-hydroxycyclobutyl)-N-(1-(3-(trifluoromethoxy)-phenyl)propy) acetamide]", "values": [
      {"measurement": "EC50", "setting": "hKv7.2/hKv7.3 [1]", "value": 2100, "unit": "nM"}
    ]},
    {"smiles": "N#CC[C@H](NC(=O)CC1(O)CC(F)(F)C1)c1cccc(OC(F)(F)F)c1", "note": "[Example 34, (S)—N-(2-cyano-1-(3-(trifluoromethoxy)phenyl)ethyl)-2-(3,3-difluoro-1-hydroxycyclobutyl)acetamide]", "values": [
      {"measurement": "EC50", "setting": "hKv7.2/hKv7.3 [1]", "value": 2500, "unit": "nM"}
    ]},
    {"smiles": "O=C(CC1(O)CC(F)(F)C1)N[C@@H](CC(F)F)c1cccc(OC(F)(F)F)c1", "note": "[Example 35, (S)—N-(3,3-difluoro-1-(3-(trifluoromethoxy)phenyl)propyl)-2-(3,3-difluoro-1-hydroxycyclobutyl)acetamide]", "values": [
      {"measurement": "EC50", "setting": "hKv7.2/hKv7.3 [1]", "value": 3500, "unit": "nM"}
    ]},
    {"smiles": "CCOC(=O)Nc1ccc(NCc2ccc(F)cc2)cc1N", "note": "[Retigabine, N-(2-amino-4-(4-fluorobenzylamino)-phenyl) carbamic acid ethyl ester]", "values": [
      {"measurement": "effect on Kv7-current", "setting": "hKv7.2/hKv7.3 [2]", "value": "potentiated"}
    ]},
    {"smiles": "O=C1c2ccccc2C(Cc2ccncc2)(Cc2ccncc2)c2ccccc21", "note": "[XE991]", "values": [
      {"measurement": "effect on Kv7-current", "setting": "hKv7.2/hKv7.3 [2]", "value": "sensitive"}
    ]}
  ]
}
